Experimental data from patent publication US5714467A, “Antibacterial and antimalarial hybrid peptides” (The Rockefeller University, priority 1993, dated 1998).
Where no end group is shown, it is not given here.

Legend:
[1] = tested on: Plasmodium falciparium strain F32 (Tanzania), blood stream forms; assay: inhibition of reinvasion of human red cells by malaria parasite; format: cell-based, Plasmodium falciparum; details: for antimalarial potency in words: FIG. 1, blood stream form of Plasmodium falciparium; for IC50: Table 4, P. falciparum, read-out: 50% Reinvasion Inhibition
Experimental: Hybrid peptides CA(1-13)M(1-13) and CA(1-8)M(1-18) were prepared as described above (see Examples 1-6) and were assayed for activity against the blood stream form of Plasmodium falciparium. For comparison the test included cecropins A and B and the frog skin peptides magainin 2 and PGLa.
The blood stream forms of the malaria parasite Plasmodium falciparium, primarily late trophozoites and early schizonts, were assayed by recording the inhibition of the reinvasion of human red cells by the method of Wahlin, B., et al, (1984) Proc. Nat'l Acad. Sci. USA 81, 7912-16, incorporated herein by reference. Quadruplicate microcultures of strain F32 (Tanzania) were incubated for 20 hrs at 37° C. in a complete tissue culture medium, with or without different concentrations of the peptides to be assayed. After acridine orange staining, the percentage of newly infected red cells was scored in a fluorescence microscope. For each culture 40,000 red cells were analysed for parasitic infection. Duplicate assays were run for CA(1-13)M(1-13).

[2] = tested on: Escherichia coli D21; assay: inhibition zone assay, lethal concentration; format: cell-based; details: for Lethal concentration, D21 = E. coli: Table 3, agarose plates, overnight incubation at 30° C.; for Lethal concentration, Escherichia coli D21: Table 2, footnote a: incubation overnight at 30° C. as well as at 37° C.
Experimental: (§1) The products of the invention were tested for activity against a variety of test organisms selected to represent a number of different types of pathogens some of them known to be particularly virulent by the inhibition zone assay of Hoffmann et al (1981) Insect Biochem. 11 537-548 which is incorporated herein by reference. Thin agar or agarose plates (8.5 cm diameter) were prepared with 6 ml of rich medium containing 100 ug/ml of streptomycin and 2×10^5 viable cells of a test organism resistant to streptomycin. Wells of […] diameter were punched in the plates and 3 ul of serially diluted samples were placed in the wells. The diameters of the zones of inhibition around the wells were measured after overnight incubation at 30° or 37° C. For each peptide the squares of the zone diameters were plotted against the logarithm of the concentration, and from the slopes and intercepts the lethal concentrations were calculated as described by Hultmark (1983) EMBO J. 2, 571-76 or Hultmark et al (1982) Eur. J. Biochem. 127 207-217 each of which being incorporated herein by reference.
(§2) It was observed during testing that basic peptides often bind to agar plates, but not so much to agarose. Therefore those lethal concentrations determined on agar may, in fact, be substantially higher than the actual lethal concentrations.
(§3) Novel peptides CA(1-8)M(1-18), CA(1-9)M(1-17), CB(1-13)M(1-13), CA(1-17)M(1-9), CA(1-18)M(1-8), M(1-13)CA(1-22) and M(1-13)CA(1-13) were prepared as described above (see Examples 1-6). These novel peptides and CA, CB, and M were tested for activity against a variety of organisms selected to represent a number of different types of pathogens, some of them known to be particularly virulent by the inhibition zone assay of Hoffmann et al (1981), Insect Biochem. 11 537-48. As in Examples 1-6, thin agarose plates were prepared with the respective organisms. The diameters of the zones of inhibition were measured after overnight incubation at 30° C. The lethal concentrations were determined as described above (see Examples 1-6; Hultmark et al articles cited thereat).

[3] = tested on: Pseudomonas aeruginosa OT97; assay: inhibition zone assay, lethal concentration; format: cell-based; details: for Lethal concentration, OT97 = P. aeruginosa: Table 3, agarose plates, overnight incubation at 30° C.
Experimental: as §1, §2, §3

[4] = tested on: Staphylococcus aureus Cowan I; assay: inhibition zone assay, lethal concentration; format: cell-based; details: for Lethal concentration, Staph = S. aureus Cowan I: Table 3, agarose plates, overnight incubation at 30° C.; for Lethal concentration, Staphylococcus aureus Cowan I: Table 2, footnote a: incubation overnight at 30° C. as well as at 37° C.
Experimental: as §1, §2, §3

[5] = tested on: Streptococcus pyogenes; assay: inhibition zone assay, lethal concentration; format: cell-based; details: for Lethal concentration, Strep = S. pyogenes: Table 3, agarose plates, overnight incubation at 30° C.
Experimental: as §1, §2, §3

[6] = tested on: Bacillus subtilis Bs11; assay: inhibition zone assay, lethal concentration; format: cell-based; details: for Lethal concentration, Bacillus subtilis Bs11 (Medium E): Table 2, Medium E; for Lethal concentration, Bacillus subtilis Bs11: Table 2, footnote a: incubation overnight at 30° C. as well as at 37° C.; for Lethal concentration, Bs11 = B. subtilis: Table 3, agarose plates; for Lethal concentration, Bs11 = B. subtilis / Lethal concentration, Bs11 + ME = B. subtilis, plates prepared with medium E: overnight incubation at 30° C.; for Lethal concentration, Bs11 + ME = B. subtilis, plates prepared with medium E: Table 3, medium E, agarose plates
Experimental: as §1, §2, §3

[7] = tested on: Bacillus megaterium BM11; assay: inhibition zone assay, lethal concentration; format: cell-based; details: Table 2, footnote c: incubation overnight at 37° C.
Experimental: as §1, §2

[8] = tested on: Candida albicans; assay: inhibition zone assay, lethal concentration; format: cell-based; details: Table 2, footnote c: incubation overnight at 37° C.
Experimental: as §1, §2

[9] = tested on: Escherichia coli D22; assay: inhibition zone assay, lethal concentration; format: cell-based; details: Table 2, footnote c: incubation overnight at 37° C.
Experimental: as §1, §2

[10] = tested on: Micrococcus luteus Ml11; assay: inhibition zone assay, lethal concentration; format: cell-based; details: Table 2, footnote c: incubation overnight at 37° C.
Experimental: as §1, §2

[11] = tested on: Saccharomyces cerevisiae; assay: inhibition zone assay, lethal concentration; format: cell-based; details: Table 2, footnote c: incubation overnight at 37° C.
Experimental: as §1, §2

[12] = tested on: Staphylococcus haemolyticus; assay: inhibition zone assay, lethal concentration; format: cell-based; details: Table 2, footnote c: incubation overnight at 37° C.
Experimental: as §1, §2

[13] = tested on: Xenorhabdus nematophilis Xn21; assay: inhibition zone assay, lethal concentration; format: cell-based; details: Table 2, footnote c: incubation overnight at 37° C.
Experimental: as §1, §2

[14] = tested on: Sheep Red Cells; assay: lysis of sheep red blood cells (lysis assay or SRC plate assay); format: cell-based; details: for Lethal concentration, SRC = Sheep Red Cells: Table 3
Experimental: These values were obtained by either the lysis assay normally used for melittin or by an adaptation of the antibacterial inhibition zone assay of the above-cited Hultmark et al articles to plates with sheep red cells (SRC). With respect to the latter, sterile agarose plates contained 6 ml of medium With 1% agarose, 0.9% NaCl and 10% SRC suspended in Alsevers solution. A dilution series of peptide was applied in 3 mm wells each loaded with 3 μl of the respective samples. The plates were incubated at 30° C. for 24 h, the zones were recorded and LC values calculated as described in the Hultmark et al articles. Clear zones were recorded after a few hours of incubation and the use of such data gave an LC value of the same order as readings after 24 h. This plate assay is faster and more convenient than the lysis assay normally used for melittin.

[15] = Table 2, footnote b: incubation overnight at 30° C.
[16] = Table 2, footnote c: incubation overnight at 37° C.
[17] = Table 2, footnote a: incubation overnight at 30° C. as well as at 37° C.

Compound	antimalarial potency in words [1]	IC50 [1]	Lethal concentration, D21 = E. coli [2]	Lethal concentration, OT97 = P. aeruginosa [3]	Lethal concentration, Staph = S. aureus Cowan I [4]	Lethal concentration, Strep = S. pyogenes [5]	Lethal concentration, Bacillus subtilis Bs11 [6]	Lethal concentration, Bs11 = B. subtilis [6]	Lethal concentration, Bs11 + ME = B. subtilis, plates prepared with medium E [6]	Lethal concentration, Escherichia coli D21 [2]	Lethal concentration, Staphylococcus aureus Cowan I [4]	Lethal concentration, Candida albicans [8]	Lethal concentration, Saccharomyces cerevisiae [11]	Lethal concentration, Staphylococcus haemolyticus [12]	Lethal concentration, Xenorhabdus nematophilis Xn21 [13]	Lethal concentration, SRC = Sheep Red Cells [14]	other results
PGLa [PGL^a]	intermediate activity	40 µM															
Cecropin P-1		90 µM															
KWKVFKKIEKMGRNIRNGIVKAGPAIAVLGEAKAL-NH2 [CB(1-35), Cecropin B]	about as potent as Mag	110 µM	0.3 µM	1 µM	200 µM	12 µM											
KWKLFKKIEKVGQNIRDGIIKAGPAVAVVGQATQIAK-NH2 [CA(1-37), Cecropin A]	negligible activity		0.2 µM	2 µM	200 µM	4 µM	4 µM	4 µM	200 µM	0.2 µM	> 200 µM	> 200 µM	60 µM	3 µM	2 µM	200 µM	Lethal concentration, Bacillus subtilis Bs11 (Medium E) ([6]; footnote c: incubation overnight at 37° C.): 200 µM; Lethal concentration, Pseudomonas aeruginosa OT97 [3, 15]: 2 µM; Lethal concentration, Pseudomonas aeruginosa OT97 [3, 16]: 1.6 µM; Lethal concentration, Streptococcus pyogenes [5, 15]: 4 µM; Lethal concentration, Streptococcus pyogenes [5, 16]: 6 µM; Lethal concentration, Bacillus megaterium BM11 [7]: 1 µM; Lethal concentration, Escherichia coli D22 [9]: 0.5 µM; Lethal concentration, Micrococcus luteus Ml11 [10]: 1 µM; Lethal concentration, Sheep Red Cells [14, 17]: > 200 µM
CC[C@H](C)[C@H](NC(=O)CN)C(=O)NCC(=O)N[C@@H](C)C(=O)N[C@H](C(=O)N[C@@H](CC(C)C)C(=O)N[C@@H](CCCCN)C(=O)N[C@H](C(=O)N[C@@H](CC(C)C)C(=O)N[C@H](C(=O)N[C@H](C(=O)NCC(=O)N[C@@H](CC(C)C)C(=O)N1CCC[C@H]1C(=O)N[C@@H](C)C(=O)N[C@@H](CC(C)C)C(=O)N[C@H](C(=O)N[C@@H](CO)C(=O)N[C@@H](Cc1c[nH]c2ccccc12)C(=O)N[C@H](C(=O)N[C@@H](CCCCN)C(=O)N[C@@H](CCCNC(=N)N)C(=O)N[C@@H](CCCCN)C(=O)N[C@@H](CCCNC(=N)N)C(=O)N[C@@H](CCC(N)=O)C(=O)N[C@@H](CCC(N)=O)C(N)=O)[C@@H](C)CC)[C@@H](C)CC)[C@@H](C)O)[C@@H](C)O)C(C)C)C(C)C [M(1-26), Melittin]			0.8 µM	3 µM	0.2 µM	0.5 µM	0.2 µM	0.2 µM	0.3 µM	0.8 µM	0.2 µM	150 µM	10 µM	0.3 µM	9 to 50 µM	4 to 8 µM	Lethal concentration, Bacillus subtilis Bs11 (Medium E) ([6]; no incubation footnote): 0.3 µM; Lethal concentration, Pseudomonas aeruginosa OT97 [3, 17]: 3 µM; Lethal concentration, Streptococcus pyogenes [5, 17]: 0.5 µM; Lethal concentration, Sheep Red Cells [14, 15]: 4 to 8 µM; Lethal concentration, Sheep Red Cells [14, 16]: 4 to 6 µM
